Test results published in ChEMBL document CHEMBL3992552, “Mechanisms of action and structure-activity relationships of cytotoxic flavokawain derivatives” (Bioorg Med Chem, 2017).
Calls of active or inactive are those of the source. The rule behind the calls is not given here.

Tested on: HaCaT
Test: Cell cycle arrest in human HaCaT cells harboring […] p53 assessed as accumulation at S phase at 25 uM measured after 48 hrs by Hoechst/BrdU staining based fluorescence assay (reference value: 52.3%)
Type: functional
Settings: not given

Row | SMILES | Activity
1 | COc1cc(O)c(C(=O)/C=C/c2ccccc2OC)c(OC)c1 | 29%

Tested on: PC-3
Test: Induction of apoptosis in human PC3 cells harboring p53 mutant assessed as upregulation of cyclinB1 after 48 hrs by Hoechst staining based assay
Type: functional, cell-based
Settings: not given

Row | SMILES | Activity
2 | COc1cc(O)c(C(=O)/C=C/c2ccccc2OC)c(OC)c1 | Active

Tested on: MDA-MB-231
Test: Cell cycle arrest in human MDA-MB-231 cells harboring p53 mutant assessed as mitotic index at 10 uM measured after 48 hrs by Hoechst staining based fluorescence assay (reference value: 2.1)
Type: functional
Settings: not given

Row | SMILES | Activity
3 | COc1cc(O)c(C(=O)/C=C/c2ccccc2OC)c(OC)c1 | inactive

Tested on: PC-3
Test: Cell cycle arrest in human PC3 cells harboring p53 mutant assessed as accumulation at S phase at 10 uM measured after 48 hrs by Hoechst/BrdU staining based fluorescence assay (reference value: 40.8%)
Type: functional
Settings: not given

Row | SMILES | Activity
4 | COc1cc(O)c(C(=O)/C=C/c2ccccc2OC)c(OC)c1 | 36%

Tested on: MCF7
Test: Induction of apoptosis in human MCF7 cells harboring wild-type p53 assessed as increase in early apoptosis at 2 times IC50 after 24 hrs by YoPro/propidium iodide/Hoechst staining based assay
Type: functional, cell-based
Settings: not given

Row | SMILES | Activity
5 | COc1cc(O)c(C(=O)/C=C/c2ccccc2OC)c(OC)c1 | Active

Tested on: NCI-H727
Test: Cell cycle arrest in human NCI-H727 cells harboring p53 mutant assessed as accumulation at S phase at 10 uM measured after 48 hrs by Hoechst/BrdU staining based fluorescence assay (reference value: 40.3%)
Type: functional
Settings: not given

Row | SMILES | Activity
6 | COc1cc(O)c(C(=O)/C=C/c2ccccc2OC)c(OC)c1 | 43%

Tested on: Huh-7
Test: Cell cycle arrest in human HuH7 cells assessed as mitotic index at 25 uM measured after 48 hrs by Hoechst staining based fluorescence assay (reference value: 2.2)
Type: functional
Settings: not given

Row | SMILES | Activity
7 | COc1cc(O)c(C(=O)/C=C/c2ccccc2OC)c(OC)c1 | inactive

Tested on: MDA-MB-231
Test: Cytotoxicity against human MDA-MB-231 cells assessed as cell viability after 48 hrs by Hoechst 33342 staining based assay
Type: functional
Settings: MDA-MB-231, 48 h

Row | SMILES | IC50
8 | COc1cc(O)c(C(=O)/C=C/c2ccccc2OC)c(OC)c1 | > 20 µM

Tested on: not listed separately
Test: Selectivity index, ratio of IC50 for human fibroblasts to IC50 for human RL cells
Settings: not given

Row | SMILES | Ratio IC50
9 | COc1cc(O)c(C(=O)/C=C/c2ccccc2OC)c(OC)c1 | 3.6

Tested on: PC-3
Test: Cell cycle arrest in human PC3 cells assessed as accumulation at M phase by Hoechst staining based fluorescence assay
Type: functional
Settings: not given

Row | SMILES | Activity
10 | COc1cc(O)c(C(=O)/C=C/c2ccccc2OC)c(OC)c1 | Active

Tested on: PC-3
Test: Cell cycle arrest in human PC3 cells harboring p53 mutant assessed as accumulation at S phase at 25 uM measured after 48 hrs by Hoechst/BrdU staining based fluorescence assay (reference value: 40.8%)
Type: functional
Settings: not given

Row | SMILES | Activity
11 | COc1cc(O)c(C(=O)/C=C/c2ccccc2OC)c(OC)c1 | 24%

Tested on: HaCaT
Test: Cell cycle arrest in human HaCaT cells harboring […] p53 assessed as accumulation at S phase at 10 uM measured after 48 hrs by Hoechst/BrdU staining based fluorescence assay (reference value: 52.3%)
Type: functional
Settings: not given

Row | SMILES | Activity
12 | COc1cc(O)c(C(=O)/C=C/c2ccccc2OC)c(OC)c1 | 49%

Tested on: not listed separately
Test: Selectivity index, ratio of IC50 for human fibroblasts to IC50 for human MCF7 cells
Settings: not given

Row | SMILES | Ratio IC50
13 | COc1cc(O)c(C(=O)/C=C/c2ccccc2OC)c(OC)c1 | 3.5

Tested on: HCT-116
Test: Cytotoxicity against human HCT116 cells assessed as cell survival at 50 uM after 48 hrs by Hoechst 33342 staining based assay relative to control
Type: functional
Settings: HCT-116, 48 h, read-out: Survival

Row | SMILES | viability at 50 µM
14 | COc1cc(O)c(C(=O)/C=C/c2ccccc2OC)c(OC)c1 | 8%

Tested on: Caco-2
Test: Cell cycle arrest in human Caco2 cells assessed as accumulation at S phase at 25 uM measured after 48 hrs by Hoechst/BrdU staining based fluorescence assay (reference value: […])
Type: functional
Settings: not given

Row | SMILES | Activity
15 | COc1cc(O)c(C(=O)/C=C/c2ccccc2OC)c(OC)c1 | 37%

Tested on: not listed separately
Test: Selectivity index, ratio of IC50 for human fibroblasts to IC50 for human HCT116 cells
Settings: not given

Row | SMILES | Ratio IC50
16 | COc1cc(O)c(C(=O)/C=C/c2ccccc2OC)c(OC)c1 | 4

Tested on: MCF7
Test: Induction of apoptosis in human MCF7 cells harboring wild-type p53 assessed as increase in late apoptosis at 2 times IC50 after 24 hrs by YoPro/propidium iodide/Hoechst staining based assay
Type: functional, cell-based
Settings: not given

Row | SMILES | Activity
17 | COc1cc(O)c(C(=O)/C=C/c2ccccc2OC)c(OC)c1 | Active

Tested on: HCT-116
Test: Cell cycle arrest in human HCT116 cells harboring wild-type p53 assessed as mitotic index at 25 uM measured after 48 hrs by Hoechst staining based fluorescence assay (reference value: 2.3)
Type: functional
Settings: not given

Row | SMILES | Activity_index
18 | COc1cc(O)c(C(=O)/C=C/c2ccccc2OC)c(OC)c1 | 1.8

Tested on: HaCaT
Test: Cytotoxicity against human HaCaT cells assessed as cell viability after 48 hrs by Hoechst 33342 staining based assay
Type: functional
Settings: not given

Row | SMILES | IC50
19 | COc1cc(O)c(C(=O)/C=C/c2ccccc2OC)c(OC)c1 | 10.9 µM

Tested on: Huh-7
Test: Cell cycle arrest in human HuH7 cells assessed as mitotic index at 10 uM measured after 48 hrs by Hoechst staining based fluorescence assay (reference value: 2.2)
Type: functional
Settings: not given

Row | SMILES | Activity
20 | COc1cc(O)c(C(=O)/C=C/c2ccccc2OC)c(OC)c1 | inactive

Tested on: MDA-MB-231
Test: Cell cycle arrest in human MDA-MB-231 cells harboring p53 mutant assessed as accumulation at S phase at 10 uM measured after 48 hrs by Hoechst/BrdU staining based fluorescence assay (reference value: 42.2%)
Type: functional
Settings: not given

Row | SMILES | Activity
21 | COc1cc(O)c(C(=O)/C=C/c2ccccc2OC)c(OC)c1 | inactive

Tested on: HCT-116
Test: Induction of apoptosis in human HCT116 cells harboring wild-type p53 assessed as upregulation of p21 measured after 48 hrs by Hoechst staining based fluorescence assay
Type: functional, cell-based
Settings: not given

Row | SMILES | Activity
22 | COc1cc(O)c(C(=O)/C=C/c2ccccc2OC)c(OC)c1 | Active

Tested on: PC-3
Test: Induction of apoptosis in human PC3 cells harboring p53 mutant assessed as increase in late apoptosis at 2 times IC50 after 48 hrs by YoPro/propidium iodide/Hoechst staining based assay
Type: functional, cell-based
Settings: not given

Row | SMILES | Activity
23 | COc1cc(O)c(C(=O)/C=C/c2ccccc2OC)c(OC)c1 | Active

Tested on: HCT-116
Test: Cell cycle arrest in human HCT116 cells harboring wild-type p53 assessed as accumulation at S phase at 25 uM measured after 48 hrs by Hoechst/BrdU staining based fluorescence assay (reference value: 68.4%)
Type: functional
Settings: not given

Row | SMILES | Activity
24 | COc1cc(O)c(C(=O)/C=C/c2ccccc2OC)c(OC)c1 | 27%

Tested on: MDA-MB-231
Test: Cell cycle arrest in human MDA-MB-231 cells harboring p53 mutant assessed as accumulation at S phase at 25 uM measured after 48 hrs by Hoechst/BrdU staining based fluorescence assay (reference value: 42.2%)
Type: functional
Settings: not given

Row | SMILES | Activity
25 | COc1cc(O)c(C(=O)/C=C/c2ccccc2OC)c(OC)c1 | inactive

Tested on: RL
Test: Cytotoxicity against human RL assessed as cell viability after 48 hrs by Hoechst 33342 staining based assay
Type: functional
Settings: not given

Row | SMILES | IC50
26 | COc1cc(O)c(C(=O)/C=C/c2ccccc2OC)c(OC)c1 | 10.1 µM

Tested on: NCI-H727
Test: Cell cycle arrest in human NCI-H727 cells harboring p53 mutant assessed as accumulation at S phase at 25 uM measured after 48 hrs by Hoechst/BrdU staining based fluorescence assay (reference value: 40.3%)
Type: functional
Settings: not given

Row | SMILES | Activity
27 | COc1cc(O)c(C(=O)/C=C/c2ccccc2OC)c(OC)c1 | 14%

Tested on: HaCaT
Test: Cell cycle arrest in human HaCaT cells harboring […] p53 assessed as mitotic index at 10 uM measured after 48 hrs by Hoechst staining based fluorescence assay (reference value: 2.6)
Type: functional
Settings: not given

Row | SMILES | Activity_index
28 | COc1cc(O)c(C(=O)/C=C/c2ccccc2OC)c(OC)c1 | 3.1

Tested on: not listed separately
Test: Selectivity index, ratio of IC50 for human fibroblasts to IC50 for human Caco2 cells
Settings: not given

Row | SMILES | Ratio IC50
29 | COc1cc(O)c(C(=O)/C=C/c2ccccc2OC)c(OC)c1 | 3.6

Tested on: Caco-2
Test: Cytotoxicity against human Caco2 cells assessed as cell survival at 50 uM after 48 hrs by Hoechst 33342 staining based assay relative to control
Type: functional
Settings: Caco-2, 48 h, read-out: Survival

Row | SMILES | viability at 50 µM
30 | COc1cc(O)c(C(=O)/C=C/c2ccccc2OC)c(OC)c1 | 43%

Tested on: HCT-116
Test: Cytotoxicity against human HCT116 cells assessed as cell viability after 48 hrs by Hoechst 33342 staining based assay
Type: functional
Settings: HCT-116, 48 h

Row | SMILES | IC50
31 | COc1cc(O)c(C(=O)/C=C/c2ccccc2OC)c(OC)c1 | 9.2 µM

Tested on: HaCaT
Test: Cytotoxicity against human HaCaT cells assessed as cell survival at 50 uM after 48 hrs by Hoechst 33342 staining based assay relative to control
Type: functional
Settings: read-out: Survival

Row | SMILES | viability at 50 µM
32 | COc1cc(O)c(C(=O)/C=C/c2ccccc2OC)c(OC)c1 | 30%

Tested on: MDA-MB-231
Test: Cytotoxicity against human MDA-MB-231 cells assessed as cell survival at 50 uM after 48 hrs by Hoechst 33342 staining based assay relative to control
Type: functional
Settings: MDA-MB-231, 48 h, read-out: Survival

Row | SMILES | viability at 50 µM
33 | COc1cc(O)c(C(=O)/C=C/c2ccccc2OC)c(OC)c1 | 37%

Tested on: NCI-H727
Test: Cytotoxicity against human NCI-H727 cells assessed as cell survival at 50 uM after 48 hrs by Hoechst 33342 staining based assay relative to control
Type: functional
Settings: NCI-H727, 48 h, read-out: Survival

Row | SMILES | viability at 50 µM
34 | COc1cc(O)c(C(=O)/C=C/c2ccccc2OC)c(OC)c1 | 11%
